Results: US20240390503A1, “Green Tea-based Nanocomplexes for Eye Disease” (Agency for Science, Technology and Research, priority 2021, published 2024)
“Also recorded” adds a separate entry of the source. Where two headings read alike, the source gives them in different places.

Legend:
[1] = test system: Human umbilical vein endothelial cells (HUVECs); assay: Inhibitory effects on VEGF-activated endothelial cell proliferation (AlamarBlue); assay type: cell-based; conditions: HUVEC, 3 days, read-out: IC50, anti-proliferative effect
Description: Human umbilical vein endothelial cells (HUVECs) were obtained from Lonza Biologics Tuas Pte Ltd (Singapore), and cultured in the endothelial cell basal medium (EBM-2) supplemented with EGM-2 SingleQuots (Lonza Biologics Tuas Pte Ltd, Singapore). HUVECs were seeded in 96-well plates (5×10^3 cells/well, n=5) and cultured for one day for cell attachment.
After 3 days, the cell viability was measured by using AlamarBlue® reagent (Life Technologies, USA) according to the manufacturer's protocol. Briefly, the medium was replaced by phenol red-free media containing 10% AlamarBlue® reagent. After incubation for 4 hours at 37° C., fluorescence intensity (λex=549 nm and λem=587 nm) was measured by a microplate reader (Tecan Group Ltd., Switzerland). Results were expressed as a percentage of viable cells relative to untreated cells.
The CI values of HA-EGCG and drug combination were calculated with the following equation using the CompuSyn software: […]

[2] = test system: Vldlr^−/− mice; assay: In vivo anti-angiogenesis effect on Vldlr−/− mice (relative number of retinal lesions, fluorescein angiography)
[3] = test system: AMD patients; conditions: oral, cited from earlier work
[4] = test system: AMD patients; conditions: cited from earlier work

Molecule: CCN(CC)CCNC(=O)c1c(C)[nH]c(/C=C2\C(=O)Nc3ccc(F)cc32)c1C [SU, Sunitinib malate]
- IC50 ([1]; Homo sapiens, 72 h, VEGF-activated conditions): 4.32 µM
- IC50 ([1]; Homo sapiens, 72 h, normal growth conditions): 6.59 µM
- progression of retinal lesions ([2]; topical, SU 0.50 mg/mL, 10 μL, 3×/day, 28 days): no efficacy

Molecule: Cc1[nH]c(/C=C2\C(=O)Nc3ccc(F)cc32)c(C)c1C(=O)N[C@H]1CCN(C(=O)N(C)C)C1 [Vorolanib]
- AMD patients with improved visual acuity ([3]; phase 1, completed 24 weeks treatment): 24 out of 25
- participants who discontinued due to severe systemic adverse effects ([3]; phase 1): 17%
- visual acuity compared to placebo ([3]; phase 2, at 52 weeks): did not improve visual acuity

Molecule: Aflibercept
- IC50 ([1]; VEGF-activated conditions): > 0.21 µM
- CNV inhibitory effect ([2]; IVT, 2.0 μg/0.5 μL, 1× at day 0): observed only in the early stages of treatment and diminished over time; also recorded: effective only in the first 7 days
- retinal lesion development ([2]; topical, AF 0.2 mg/mL or equivalent HA-EGCG/chitosan, 10 μL, 3×/day, 31 days): failed to suppress the lesion progression

Molecule: Ranibizumab
- AMD patients with improved visual acuity ([4]; monthly IVT injection, 0.5 mg): 33.8%
- incidence of increased intraocular pressure ([4]; two year treatment): 24%
- incidence of intraocular inflammation ([4]; two year treatment): 18%
